{
  "source": "paper PMC11750672",
  "about": "“The in vivo metabolic pathway of Deg-AZM and in vitro investigations into the contribution of drug metabolizing enzymes and drug transporters in the drug interactions of Deg-AZM, a clinical-stage new transgelin agonist” (Frontiers in Pharmacology, 2025)",
  "key": {"[1]": {"molecular_target": "T1, CYP2C8 (Homo sapiens, UniProt P10632)", "T1 construct": "from tissue; host or cells: human liver microsomes", "T1 sequence (P10632 1-490)": "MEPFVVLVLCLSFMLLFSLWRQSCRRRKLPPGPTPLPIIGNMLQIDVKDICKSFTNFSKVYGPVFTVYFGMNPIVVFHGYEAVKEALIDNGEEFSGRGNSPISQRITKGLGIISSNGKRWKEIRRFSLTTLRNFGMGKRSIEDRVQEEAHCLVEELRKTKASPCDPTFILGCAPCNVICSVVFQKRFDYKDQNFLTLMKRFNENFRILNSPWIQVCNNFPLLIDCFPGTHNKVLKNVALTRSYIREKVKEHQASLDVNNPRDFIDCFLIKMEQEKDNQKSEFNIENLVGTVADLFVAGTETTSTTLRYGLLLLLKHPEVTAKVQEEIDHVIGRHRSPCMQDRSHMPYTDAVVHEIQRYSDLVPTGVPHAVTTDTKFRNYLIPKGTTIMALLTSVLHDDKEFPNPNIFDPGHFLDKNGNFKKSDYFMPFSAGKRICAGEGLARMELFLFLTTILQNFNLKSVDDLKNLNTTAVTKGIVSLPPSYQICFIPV", "experiment": "CYP inhibition in HLMs", "type": "in vitro ADME", "conditions": "HLM 0.025 mg/mL, probe amodiaquine, 10 min", "description": "(§1) CYP inhibition potential of Deg-AZM was assessed in NADPH-fortified HLMs (0.5 mg/mL for CYP1A2, CYP2B6, CYP2C19 and CYP2D6 system, 0.035 mg/mL for CYP2C9 system, 0.05 mg/mL for CYP3A4 system, and 0.025 mg/mL for CYP2C8 system) using CYP probe substrates (same as the positive controls in HLM phenotyping assays). Deg-AZM in triplicates (0, 0.2, 0.6, 2.0, 6.0, 20, and 60 μM) was treated with each probe of CYP1A2 (20 min), CYP2B6 (20 min), CYP2C8 (10 min), CYP2C9 (60 min), CYP2C19 (45 min), CYP2D6 (30 min) and CYP3A4 (15 min). Probe substrate metabolites were analyzed by LC-MS/MS and the peak area ratios of analytes to internal standard (Indapamide) were calculated. The activity of the CYP450 enzyme subtype is directly proportional to the concentration of the corresponding probe substrate metabolites. The average of the measured values of each group was calculated, the control tube value was set as 100%, the residual probe substrate metabolites was calculated in the presence of positive inhibitors and Deg-AZM at series concentration. IC50 values were calculated by the dose-response model (nonlinear regression) in GraphPad Prism software."}, "[2]": {"molecular_target": "T2, CYP2B6 (Homo sapiens, UniProt P20813)", "T2 construct": "from tissue; host or cells: human liver microsomes", "T2 sequence (P20813 1-491)": "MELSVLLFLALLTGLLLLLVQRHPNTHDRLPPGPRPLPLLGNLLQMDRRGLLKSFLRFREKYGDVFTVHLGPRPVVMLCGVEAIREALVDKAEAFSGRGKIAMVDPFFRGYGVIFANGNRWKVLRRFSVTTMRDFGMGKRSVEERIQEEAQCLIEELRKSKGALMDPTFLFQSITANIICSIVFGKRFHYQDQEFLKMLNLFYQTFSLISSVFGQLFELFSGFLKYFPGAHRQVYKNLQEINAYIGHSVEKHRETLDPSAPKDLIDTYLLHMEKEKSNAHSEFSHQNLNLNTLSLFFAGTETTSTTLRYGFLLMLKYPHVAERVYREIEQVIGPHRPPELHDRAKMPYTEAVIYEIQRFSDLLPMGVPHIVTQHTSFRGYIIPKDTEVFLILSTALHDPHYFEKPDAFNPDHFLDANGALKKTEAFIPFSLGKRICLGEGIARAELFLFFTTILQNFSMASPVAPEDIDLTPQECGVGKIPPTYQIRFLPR", "experiment": "CYP inhibition in HLMs", "type": "in vitro ADME", "conditions": "HLM 0.5 mg/mL, probe bupropion, 20 min", "description": "as §1"}, "[3]": {"molecular_target": "T3, CYP2D6 (Homo sapiens, UniProt P10635)", "T3 construct": "from tissue; host or cells: human liver microsomes", "T3 sequence (P10635 whole entry)": "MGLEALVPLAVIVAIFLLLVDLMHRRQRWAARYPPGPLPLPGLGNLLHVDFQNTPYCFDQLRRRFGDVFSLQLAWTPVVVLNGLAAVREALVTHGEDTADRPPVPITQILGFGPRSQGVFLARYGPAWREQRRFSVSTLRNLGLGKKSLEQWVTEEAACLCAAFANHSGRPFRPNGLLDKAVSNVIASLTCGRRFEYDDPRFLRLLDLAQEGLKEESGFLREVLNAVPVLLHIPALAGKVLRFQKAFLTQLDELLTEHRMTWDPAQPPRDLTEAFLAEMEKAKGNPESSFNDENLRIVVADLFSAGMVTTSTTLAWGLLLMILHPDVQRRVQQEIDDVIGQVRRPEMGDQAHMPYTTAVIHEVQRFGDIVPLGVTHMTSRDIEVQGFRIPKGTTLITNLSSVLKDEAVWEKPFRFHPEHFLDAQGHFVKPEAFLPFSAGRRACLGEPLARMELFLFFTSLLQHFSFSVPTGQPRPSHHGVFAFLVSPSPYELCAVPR", "experiment": "CYP inhibition in HLMs", "type": "in vitro ADME", "conditions": "HLM 0.5 mg/mL, probe bufuralol, 30 min", "description": "as §1"}, "[4]": {"molecular_target": "T4, CYP2C9 (Homo sapiens, UniProt P11712)", "T4 construct": "from tissue; host or cells: human liver microsomes", "T4 sequence (P11712 whole entry)": "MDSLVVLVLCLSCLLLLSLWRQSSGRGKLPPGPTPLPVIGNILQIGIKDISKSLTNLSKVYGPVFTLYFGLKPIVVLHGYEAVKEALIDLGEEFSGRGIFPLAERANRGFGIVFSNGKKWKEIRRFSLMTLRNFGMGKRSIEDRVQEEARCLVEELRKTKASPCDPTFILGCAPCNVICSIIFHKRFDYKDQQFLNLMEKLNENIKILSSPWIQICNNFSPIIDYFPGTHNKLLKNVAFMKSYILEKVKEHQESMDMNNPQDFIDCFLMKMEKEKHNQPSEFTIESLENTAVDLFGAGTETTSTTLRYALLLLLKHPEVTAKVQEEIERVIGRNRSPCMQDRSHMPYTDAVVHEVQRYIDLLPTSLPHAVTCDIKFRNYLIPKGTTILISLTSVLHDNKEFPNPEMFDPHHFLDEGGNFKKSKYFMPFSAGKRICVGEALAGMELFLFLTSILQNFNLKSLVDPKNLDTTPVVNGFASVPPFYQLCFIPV", "experiment": "CYP inhibition in HLMs", "type": "in vitro ADME", "conditions": "HLM 0.035 mg/mL, probe diclofenac, 60 min", "description": "as §1"}, "[5]": {"molecular_target": "T5, CYP2C19 (Homo sapiens, UniProt P33261)", "T5 construct": "from tissue; host or cells: human liver microsomes", "T5 sequence (P33261 whole entry)": "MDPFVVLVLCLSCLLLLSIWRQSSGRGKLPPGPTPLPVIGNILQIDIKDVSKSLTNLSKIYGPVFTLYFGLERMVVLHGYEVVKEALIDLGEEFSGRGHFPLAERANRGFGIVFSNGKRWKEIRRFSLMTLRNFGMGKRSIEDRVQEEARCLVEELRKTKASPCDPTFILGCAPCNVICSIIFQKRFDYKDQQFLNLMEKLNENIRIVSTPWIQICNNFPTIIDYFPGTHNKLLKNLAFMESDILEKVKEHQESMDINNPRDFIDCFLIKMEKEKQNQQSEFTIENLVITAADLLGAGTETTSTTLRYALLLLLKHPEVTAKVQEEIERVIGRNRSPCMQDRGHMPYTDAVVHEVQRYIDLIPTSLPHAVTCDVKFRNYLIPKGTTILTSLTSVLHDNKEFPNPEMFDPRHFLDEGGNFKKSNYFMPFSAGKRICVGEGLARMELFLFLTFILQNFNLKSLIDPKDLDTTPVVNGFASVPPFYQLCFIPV", "experiment": "CYP inhibition in HLMs", "type": "in vitro ADME", "conditions": "HLM 0.5 mg/mL, probe S-mephenytoin, 45 min", "description": "as §1"}, "[6]": {"experiment": "Excretion and material balance in rats (urine, feces 0-24 h)", "type": "in vivo", "conditions": "through the kidneys and urine", "description": "The plasma samples at 0.167 h, 0.5 h, 3 h and 8 h after administration were obtained from the study of tissue distribution in rats ([Gu et al., 2024]). Urine, feces and bile samples at 0–24 h after administration were obtained from the excretion study of a single gavage administration of 25 mg/kg Deg-AZM in rats ([Gu et al., 2024]).\nThe types and proportions of metabolites in the excretion pathway were elucidated in this study. […] Based on the peak area in this study, the total amount of metabolites in urine and feces of rats was 0.589 times and 9.96 times that of the original form of Deg-AZM, respectively. The total amount of Deg-AZM excreted in its original form and various metabolites in urine and feces was 23.7% and 19.8% of the administered dose, respectively, with a material balance coefficient of 43.5%. Deg-AZM was mainly excreted in the form of its original form M0 (cumulative excretion fraction of 14.9%) and metabolite M2 (cumulative excretion fraction of 5.33%) through the kidneys and urine, and in the form of metabolite M1-2 (cumulative excretion fraction of 4.29%) and M2 (cumulative excretion fraction of 3.93%) through the intestines and feces. […] It is necessary to obtain standard samples of the main metabolites for accurate quantification or use isotope tracing techniques to further improve material balance research in the clinical stage."}},
  "data": [
    {"smiles": "CCC1OC(=O)C(C)C(O)C(C)C(O)C(C)(O)CC(C)CN(C)C(C)C(O)C1(C)O", "note": "(stereo not drawn) [Deg-AZM, Deglycosylated azithromycin]", "values": [
      {"measurement": "IC50", "setting": "[1]", "result": "> 60", "unit": "µM"},
      {"measurement": "IC50", "setting": "[2]", "result": 8.97, "unit": "µM"},
      {"measurement": "IC50", "setting": "[3]", "result": 7.89, "unit": "µM"},
      {"measurement": "IC50", "setting": "[4]", "result": "> 60", "unit": "µM"},
      {"measurement": "IC50", "setting": "[5]", "result": "> 60", "unit": "µM"},
      {"measurement": "Cumulative excretion fraction, urine", "setting": "[6]", "result": 14.9, "unit": "%"}
    ]}
  ]
}
